“Also recorded” adds a separate entry of the source.
Experiments:
human 20 S proteasome = molecular target: T1, human 20 S proteasome (Homo sapiens, UniProt P28074); assay: Human 20 S proteasome inhibition (chymotrypsin-like activity); assay type: biochemical; conditions: chymotrypsin-like activity of human 20 S proteasome (7 nM working solution); substrate Suc-Leu-Leu-Val-Tyr-AMC; 50 mM HEPES, 0.035% SDS, pH 7.5; pre-incubation 15 min, 37 °C; Morrison equation; duplicate, repeated three times
T1 construct: purchased Biochem, Boston, MA, USA
Method: (§1) Phe-Pro-Arg-AMC, Succinyl-Ala-Ala-Pro-Phe-AMC and Suc-Leu-Leu-Val-Tyr-AMC (Abcam, Cambridge, UK) were used as substrates for trypsin, chymotrypsin and human 20 S proteasome respectively. 10 μl trypsin/chymotrypsin working solution (1 µg/ml) were added to the wells of a micro-titre plate containing 180 μl substrate and various inhibitor solutions. 10 μl human 20 S proteasome (Biochem, Boston, MA, USA) working solution (7 nM) in 50 mM HEPES buffer containing 0.035% SDS, pH 7.5 was added to the well of a micro-titre plate containing 180 μl substrate solution and each of various inhibitor solution. Each determination was carried out in duplicate. The rate of hydrolysis of the trypsin/chymotrypsin substrate was monitored subsequently and continuously, at 37 °C, by measuring the rate of increase of fluorescence in a FLUOstar OPTIMA multi-well plate reader (BMG Labtech, Ortenberg, Germany). For the 20 S proteasome, the rate of hydrolysis of the substrate was monitored after a pre-incubation for 15 min, at 37 °C. […] Each assay was repeated three times.

chymotrypsin = chymotrypsin (Bos taurus, UniProt P00766); assay: Trypsin/chymotrypsin inhibition assay (Morrison): chymotrypsin; assay type: biochemical
Method: as §1

trypsin = molecular target: T2, trypsin (Bos taurus, UniProt P00760); assay: Trypsin/chymotrypsin inhibition assay (Morrison): trypsin; assay type: biochemical; conditions: substrate Phe-Pro-Arg-AMC, 37 °C, fluorescence, Morrison equation, each determination in duplicate, assay repeated three times
T2 construct: gene PRSS1
T2 sequence (P00760 24-246): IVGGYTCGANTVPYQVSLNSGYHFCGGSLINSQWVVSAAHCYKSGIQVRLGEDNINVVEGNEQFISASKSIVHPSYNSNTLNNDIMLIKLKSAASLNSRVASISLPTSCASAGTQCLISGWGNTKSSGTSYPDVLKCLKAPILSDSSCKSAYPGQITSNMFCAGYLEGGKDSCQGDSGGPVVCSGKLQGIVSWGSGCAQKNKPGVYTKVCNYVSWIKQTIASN
Method: as §1

HMEC-1 = assay: MTT cell viability, normal cell line HMEC-1; assay type: cell-based; conditions: 24 h, 5 replicates, three independent experiments
Method: The cancer cell line H157 (ATCC-CRL-5802, ATCC, Teddington, Middlesex, UK) and PC-3 (ATCC-CRL-1435, ATCC, Teddington, Middlesex, UK) were cultured in RPMI-1640 culture medium (Invitrogen, Paisley, UK) containing 10% FBS and 1% Penicillin-Streptomycin. MCF-7 (ATCC-HTB-22, ATCC, Teddington, Middlesex, UK) was cultured in DMEM culture medium (Invitrogen, Paisley, UK) containing 10% FBS and 1% Penicillin-Streptomycin. The normal cell line HMEC-1 (ATCC-CRL-3243, ATCC, Teddington, Middlesex, UK) was cultured in MCDB131 medium (Gibco, Paisley, UK) containing 10% FBS (foetal bovine serum, obtained from Sigma-Aldrich, St. Louis, MO, USA), 1% Penicillin-Streptomycin (Invitrogen, Paisley, UK), epidermal growth factor (10 ng/mL), hydrocortisone (1 μg/mL, obtained from Sigma-Aldrich, St. Louis, MO, USA) and glutamine (10 mM). Cells were seeded into a 96-well plate and incubated for 24 h (37 °C, 5% CO2) followed by starvation using serum-free medium. Sample solutions were loaded on this plate which was further incubated for 24 h. The 3-(4,5-dimethylthiazol-2-yl)-2,5-diphenyltetrazolium bromide (MTT) solution (5 mg/ml, 10 μl/well) was utilized to form the formazan after a 4 h incubation. Cell-produced-formazan was dissolved in DMSO (100 μl/well). The absorbance was recorded by using an ELx808^TM Absorbance Microplate Reader at 570 nm (BioTek Instruments, Inc., Winooski, VT, USA). […]

horse erythrocytes = assay: Haemolysis activity test; assay type: cell-based; conditions: 2% suspension in PBS, 1–512 μM, 37 °C, 4 h, absorbance 550 nm, 5 replicates, three independent experiments
Method: Completely washed horse erythrocyte (TCS Biosciences Ltd., Buckingham, UK) suspension was prepared using phosphate-buffered saline (PBS). A series of peptide solutions were incubated with a 2% suspension of red blood cells at final concentrations of 1–512 μM at 37 °C for 4 h. After the incubation, 200 μl of each supernatant was transferred into a 96-well plate and the absorbance at 550 nm was measured with a Synergy HT plate reader (BioTek Instruments, Inc., Winooski, VT, USA). The BioTek’s Gen5^TM software was used to analyse the result. (Biolise BioTek EL808, Winooski, VT, USA). All the peptide concentrations and controls had 5 replicates in single 96-well plate and three independent experiments were performed.

| Ki (human 20 S proteasome) | Compound | Ki (chymotrypsin) | Ki (trypsin) | cytotoxicity / growth inhibition on normal cells HMEC-1 (HMEC-1) | haemolysis (horse erythrocytes) |
| --- | --- | --- | --- | --- | --- |
| 8.55 ± 1.84 µM | CC[C@H](C)[C@H](NC(=O)[C@@H]1CSSC[C@H](NC(=O)CNC(=O)[C@H](CCCNC(=N)N)NC(=O)[C@H](CC(C)C)NC(=O)[C@@H](NC(=O)[C@@H](N)[C@@H](C)O)C(C)C)C(=O)N[C@@H](Cc2c[nH]c3ccccc23)C(=O)N[C@@H]([C@@H](C)O)C(=O)N[C@@H](Cc2ccccc2)C(=O)N[C@@H](CO)C(=O)N[C@@H](Cc2ccccc2)C(=O)N2CCC[C@H]2C(=O)N2CCC[C@H]2C(=O)N[C@@H](CCCCN)C(=O)N2CCC[C@H]2C(=O)N1)C(N)=O [HECI, TVLRGCWTFSFPPKPCI-NH2] |  |  |  |  |
|  | CC[C@H](C)[C@H](NC(=O)[C@@H]1CSSC[C@H](NC(=O)CNC(=O)[C@H](CCCNC(=N)N)NC(=O)[C@H](CC(C)C)NC(=O)[C@@H](NC(=O)[C@@H](N)[C@@H](C)O)C(C)C)C(=O)N[C@@H](Cc2c[nH]c3ccccc23)C(=O)N[C@@H]([C@@H](C)O)C(=O)N[C@@H](CCCCN)C(=O)N[C@@H](CO)C(=O)N[C@@H](Cc2ccccc2)C(=O)N2CCC[C@H]2C(=O)N2CCC[C@H]2C(=O)N[C@@H](CCCCN)C(=O)N2CCC[C@H]2C(=O)N1)C(N)=O [K^9-HECI, TVLRGCWTKSFPPKPCI-NH2] | 13.9 ± 1.09 µM | 0.79 ± 0.04 µM | low degree of cytotoxicity; also recorded: low degree of inhibition; also recorded: only slight cytotoxicity on HMEC-1 | low degree of haemolytic activity; also recorded: low degree of haemolysis |
